How the values were obtained:
[1] = HPLC analysis of phosphorylated AZT metabolites in clones incubated with 3H-AZT; type: in vitro ADME
Description: Cell lines were incubated with ^3H-thymidine or ^3H-AZT for 4 hours. Dried methanol extracts of the clones were redissolved in 60 μof distilled water and centrifuged to remove undissolved material. Twenty microliters of the sample was injected and separated on a 10×100 mm Rainin Hydropore anion exchange column. The nucleosides were eluted from the column with a linear gradient of potassium phosphate (5 mM to 1 M, pH4.0) at a flow rate of 1 ml/min. The samples were collected (0.5 ml), mixed with 5 ml Packard scintillation fluid, and quantitated using a liquid scintillation counter. Phosphorylated derivatives of thymidine and AZT were identified with authentic standards.
Pool sizes were determined by incubation of cells with ^3H-AZT for 4 hours followed by cellular extraction and HPLC. The numbers are expressed as pmoles/10^6 cells. The numbers in parentheses represent the percentage of total radioactive species in that pool.

[2] = tested on: HIV-LacZ; type: cell-based; settings: for cross resistance of cell lines “persistently resistant” to AZT to other nucleoside analogs: d4T at 50 μM
[3] = tested on: MLV-neo; experiment: MLV-neo colony formation in the presence of antiviral agents; type: cell-based, Moloney Leukemia virus; settings: Hela-T4, AZT 10 uM, DDI 50 uM, DDC 10 uM, D4T 50 uM, control 9050
Description: Production of recombinant HIV-gpt has been described elsewhere (26). The amphotropic cell line PA317 was transfected with the recombinant murine retrovirus pLXSN (36) and was used as the source of the recombinant MLV-neo virus. Stock preparations of HIV-1IIIB were harvested from H9 cells by the “shake off method” (13). Stock virus infectivity was determined by end-point dilution in MT-2 cells (32). Virus induced cytopathic effect was scored 7 days post-infection and the TCID50 was calculated with the Reed and Muench equation (33).
To confirm this high rate of infection in the absence of genetic drug resistance, we used several other recombinant viruses and host cells. […] A high rate of infection of Jurkat cells in the presence of d4T has also been seen.
Table 5. HIV-gpt produced in COS cells by transfection with plasmids (plasmid derived) is compared with HIV-gpt produced by, rescue from H9/HIV-gpt cell line after infection with HIV-IIIB and cells infected with MLV-neo.
(§1) Table 6. Colony formation and persistent resistance after Hela-T4 cell infection with MLV-neo virus in the presence and absence of various antiviral agents.

[4] = tested on: recombinant HIV, recombinant MLV, or replication-competent HIV; type: cell-based; settings: Hela-T4, MLV-neo; for No. of persistently resistant colonies: AZT 10 uM, DDI 50 uM, DDC 10 uM, D4T 50 uM, resistant/tested; for Frequency: frequency of persistently resistant colonies
From the text: The presence of a selectable marker gene in the recombinant HIV allowed the isolation of cells infected by the recombinant viruses in the presence of d4T. These cells were characterized by infection with both additional recombinant viruses and by replication-competent viruses.
as §1

[5] = tested on: HIV-gpt; experiment: HIV-gpt colony formation after infection of HeLa-T4 cells in the presence of antiretroviral agents; type: cell-based; settings: HeLa-T4; plasmid derived HIV-gpt (COS cells); AZT 10 μM, DDI 50 μM, D4T 50 μM; no drug control 8800
[6] = S1 (sensitive) cell line, 3H-AZT for 4 hours, HPLC
[7] = R116 (“persistently resistant”) cell line, 3H-AZT for 4 hours, HPLC

With `Cc1cn([C@H]2C[C@H](N=[N+]=[N-])[C@@H](COP(=O)(O)OP(=O)(O)O)O2)c(=O)[nH]c1=O` [AZTDP, 3′-azido-3′-deoxythymidine diphosphate] the concentration in cells [1, 6] was 0.0116 pmoles/10^6 cells, the “percentage of total radioactive species in that pool” value (shortened to “percentage”) [1, 6] was 6.9% and the concentration in cells ([1]; human, 4 h) was 0.0193 pmoles/10^6 cells. For the same compound, the “percentage” value ([1]; human, 4 h) was 9.6%.

For `Cc1cn([C@H]2C[C@H](N=[N+]=[N-])[C@@H](COP(=O)(O)O)O2)c(=O)[nH]c1=O` [AZTMP, 3′-azido-3′-deoxythymidine monophosphate], the concentration in cells [1, 7] was 0.1575 pmoles/10^6 cells, the “percentage” value [1, 7] was 78.6% and the concentration in cells [1, 6] was 0.1212 pmoles/10^6 cells. For the same compound, the “percentage” value [1, 6] was 71.6%.

In the case of `Cc1cn([C@H]2C[C@H](N=[N+]=[N-])[C@@H](CO[P@](=O)(O)O[P@](=O)(O)OP(=O)(O)O)O2)c(=O)[nH]c1=O` [AZTTP, 3′-azido-3′-deoxythymidine triphosphate], the “reduction in AZTTP in R116 cells compared to S1 cells” value ([1]; 3H-AZT incubation) is reported as ~2 fold, the concentration in cells [1, 6] is reported as 0.0158 pmoles/10^6 cells and the “percentage” value [1, 6] is reported as 9.3%. The concentration in cells ([1]; human, 4 h) was 0.0083 pmoles/10^6 cells and the “percentage” value ([1]; human, 4 h) was 4.2%.

In the case of `Nc1ccn([C@H]2CC[C@@H](CO)O2)c(=O)n1` [DDC], the “cross resistance of cell lines “persistently resistant” to AZT to other nucleoside analogs” value [2] is reported as “None of the “persistently resistant” cell lines were cross “resistant””, the No. of colonies [3] is reported as 17 and the “No. of persistently resistant colonies” value [4] is reported as 2/17. For the same compound, the Frequency [4] was 2.2 × 10^−4.

For `O=c1[nH]cnc2c1ncn2[C@H]1CC[C@@H](CO)O1` [DDI], the Number of colonies [5] was 16, the “Number of “persistently resistance” colonies” value ([2]; colonies from HIV-gpt infection of HeLa-T4 in presence of drug, resistant/tested) was 2/16 and the “cross resistance of cell lines “persistently resistant” to AZT to other nucleoside analogs” value [2] was “None of the “persistently resistant” cell lines were cross “resistant””. For the same compound, the Frequency ([2]; frequency of persistently resistant colonies, HeLa-T4, plasmid derived HIV-gpt) was 2.3 × 10^−4, the No. of colonies [3] was 19 and the “No. of persistently resistant colonies” value [4] was 4/19. For the same compound, the Frequency [4] was 4.4 × 10^−4.
